Patent US10376498B2, “3-alkyl pyridinium compound from red sea sponge with potent antiviral activity” (priority 2014, dated 2019)

Molecular target: T1, West Nile Virus NS3 protease (West Nile virus, UniProt P06935, DELINS1467-1501GGGGSGGGG)
T1 construct: truncated form of West Nile NS3 protease (residues 1-186); purchased AnaSep (AnaSpec), San Jose, Calif., USA
T1 sequence (P06935 with tags, fused parts or gaps DELINS1467-1501GGGGSGGGG): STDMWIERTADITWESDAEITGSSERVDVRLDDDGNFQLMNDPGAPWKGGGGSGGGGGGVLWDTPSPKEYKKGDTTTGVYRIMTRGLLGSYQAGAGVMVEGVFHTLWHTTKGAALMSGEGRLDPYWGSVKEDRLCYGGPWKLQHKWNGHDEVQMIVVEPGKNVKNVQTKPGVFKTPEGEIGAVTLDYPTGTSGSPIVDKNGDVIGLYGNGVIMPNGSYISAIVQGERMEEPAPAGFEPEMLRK
Assay: West Nile Virus NS3 protease inhibition assay (SensoLyte 440 kit)
Type: biochemical
Details: LOPAC compounds clustering with fraction 2
Protocol: The SPE fraction was further fractionated in order to isolate the prominent peaks identified by LC-MS using the technique of HPLC and determined retention times.
The West Nile Virus NS3 protease inhibition assay was carried out using the commercial kit SensoLyte® 440 West Nile Virus Protease Assay Kit (AnaSep, San Jose, Calif., USA). The protease is a truncated form of West Nile NS3 protease (residues 1-186) connected to it is NS2B cofactor (residues 49-96) by the linker sequence, […]. Protease activity was assessed by its ability to cleave the fluorogenic peptide Pyr-RTKRAMC, and the subsequent production of free AMC (7-amino-4-methylcoumarin) fluorophores. All extracts and controls were performed with three replicates in a 384-well plate format, each with a total reaction mixture of 33 μl. To begin, the test extracts and protease solution were incubated at 37° C. for 10 min before the addition of the pre-heated substrate. After substrate addition and gentle mixing the reaction was incubated at 37° C. for one hour. The fluorophore was detected with the use of a SpectraMax® Paradigm® Multimode Microplate Detection Platform (Molecular Devices, Sunnyvale, Calif., USA) by scanning at 354 nm excitation wavelength and 442 n emission wavelength.

| SMILES | inhibition of the WNV NS protease (in words) |
| --- | --- |
| C[C@]12C[C@H](O)[C@H]3[C@@H](CCC4=CC(=O)CC[C@@]43C)[C@@H]1CC[C@@H]2C(=O)CO (single isomer, unassigned) [Corticosterone] | no inhibition |
| Clc1nccc2c1ccc1ccccc12 [CBIQ] | no inhibition |
| C[C@@H]1C(=O)NC2=Nc3cccc(Cl)c3CN21 [Quazinone] | no inhibition |
| O.O.O=c1c(O)c(-c2ccc(O)c(O)c2)oc2cc(O)cc(O)c12 [Quercetin dehydrate] | no inhibition |
| CCN1/C(=C/C(C)=O)Sc2ccc(OC)cc21 [TG003] | no inhibition |
